# Tests used:
# [1] = target: recombinant human Vanin-1 (Homo sapiens (Human), UniProt O95497); assay: Vanin-1 recombinant enzyme activity inhibition assay; type: biochemical; conditions: Pantetheine 7-amino-4-trifluoromethylcoumarin substrate 45 μM, data at the 30th minute
# Protocol: 1. Vanin-1 Recombinant Enzyme Activity Inhibition Assay
# A certain mass of the compound was weighed precisely, and prepared with DMSO and reaction buffer (50 mM Tris base, 50 mM KCl, 1.6 mM cysteamine, 0.005% Brij 35, pH 8.0, prepared when using) to a maximum concentration of 10000 nM, then diluted in a 4-fold gradient, and prepared into 10 compound working solutions with different concentrations; • for the activity inhibition reaction of recombinant human Vanin-1 (Biorab, JN0618), 2.5 μL of compound working solution and 5 μL of recombinant human Vanin-1 protein were first mixed. […] Raw data at the 30th minute were collected for data processing and analysis, then the concentration-effect curve was fitted with GraphPad Prism 8 software, and the IC50 of the compound concentration was calculated.
# [2] = In vivo pharmacokinetic evaluation in mice; conditions: C57BL6 mice; for Peak concentration Cmax: plasma
# Source text: 2. In Vivo Pharmacokinetic Evaluation in Mice
# To detect pharmacokinetic parameters of the compounds of the present disclosure in C57BL6 mice
# The vehicle used in the experiment was: DMSO:Solutol:PBS=5%:25%:70% (v/v/v). Preparation method: The required compound was weighed accurately, added with a certain volume of DMSO in a certain proportion, vortex-mixed until completely dissolved, then added successively with Solutol and PBS according to the above proportion, and mixed well. The vehicles used in the intravenous (iv) administration group and oral (po) administration group were the same vehicles in the experiment. The intravenous dose was 1 mpk and the oral dose was 2 mpk. Experimental blood collection time points: IV group: 0.083, 0.25, 0.5, 1, 2, 4, 7, 24 h. PO group: 200 μL of whole blood was collected from jugular vein at each time point of 0.25, 0.5, 1, 2, 4, 7 and 24 h, anticoagulated with EDTA-K2, and immediately centrifuged at 4000 rpm for 5 minutes at 4° C. The supernatant was taken and the samples were frozen and stored in a refrigerator at −80° C. Processing of plasma samples: The sample was precipitated with ACN/MeOH (1:1, v/v) precipitant containing internal standard, then centrifuged at 14000 rpm for 5 minutes. The supernatant was taken into LC-MS/MS (AB Triple Quard 5500) for analysis to obtain plasma concentrations, and parameters were calculated by the non-compartmental model of Winnolin 8.1 version.
# [3] = intragastric administration group po, 2 mpk
# [4] = intravenous injection group iv, 1 mpk
# Sequence of recombinant human Vanin-1 (O95497 22-513): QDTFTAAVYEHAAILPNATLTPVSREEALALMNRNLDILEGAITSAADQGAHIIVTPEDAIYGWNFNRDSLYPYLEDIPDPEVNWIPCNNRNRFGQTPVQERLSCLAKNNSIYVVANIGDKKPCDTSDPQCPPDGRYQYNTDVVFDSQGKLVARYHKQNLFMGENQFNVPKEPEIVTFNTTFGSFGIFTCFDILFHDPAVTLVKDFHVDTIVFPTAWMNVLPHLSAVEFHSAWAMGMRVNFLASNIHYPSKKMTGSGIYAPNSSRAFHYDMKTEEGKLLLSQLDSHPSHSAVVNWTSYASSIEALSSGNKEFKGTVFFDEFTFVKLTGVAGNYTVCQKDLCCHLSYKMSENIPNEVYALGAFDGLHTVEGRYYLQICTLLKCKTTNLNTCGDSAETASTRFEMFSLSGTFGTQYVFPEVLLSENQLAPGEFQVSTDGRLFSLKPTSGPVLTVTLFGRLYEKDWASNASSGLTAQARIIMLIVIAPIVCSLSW
compound,measurement,setting,value
O=C(c1cnc(NC2CCc3ncc(Br)cc32)nc1)N1CCC2(CCOCC2)C1 (centres unmarked) [Compound 23],IC50,[1],1.7 nM
CCC1(CC)CCN(C(=O)c2cnc(N[C@@H]3CCc4ncccc43)nc2)C1 [Compound 13],IC50,[1],4.2 nM
Cc1cnc2c(c1)C(Nc1ncc(C(=O)N3CCC4(CCOCC4)C3)cn1)CC2 (centres unmarked) [Compound 21],IC50,[1],6.9 nM
O=C(c1cnc(NC2CCc3ncccc32)nc1)N1CCC2(CCOCC2)C1 (centres unmarked) [Compound 2],IC50,[1],8.9 nM
CCC(=O)N(C)C1CCN(C(=O)c2cnc(N[C@@H]3CCc4ncccc43)nc2)C1 (some centres unmarked) [Compound 26],IC50,[1],2 nM
CC(=O)N(C)C1CCN(C(=O)c2cnc(N[C@@H]3CCc4ncccc43)nc2)C1 (some centres unmarked) [Compound 17],IC50,[1],0.6 nM
same,Area under the curve AUC0-7h,[2]; [3],684.31 ng·h/mL
same,Clearance rate CL,[2]; [3],48.6622 mL/min/kg
same,Distributed solvent Vd,[2]; [3],4.55 L/kg
same,Half-life T1/2,[2]; [3],1.05 h
same,Peak concentration Cmax,[2]; [3],539.37 ng/mL
same,Area under the curve AUC0-7h,[2]; [4],557.60 ng·h/mL
same,Clearance rate CL,[2]; [4],33.857 mL/min/kg
same,Distributed solvent Vd,[2]; [4],2.60 L/kg
same,Half-life T1/2,[2]; [4],0.93 h
same,Peak concentration Cmax,[2]; [4],742.33 ng/mL
same,Bioavailability F %,[2]; po 2 mpk vs iv 1 mpk,61.4%
Cc1ccc2c(n1)CCC2Nc1ncc(C(=O)N2CCC3(CCOCC3)C2)cn1 (centres unmarked) [Compound 19],IC50,[1],2.9 nM
same,Area under the curve AUC0-7h,[2]; [3],1459.29 ng·h/mL
same,Clearance rate CL,[2]; [3],21.9452 mL/min/kg
same,Distributed solvent Vd,[2]; [3],2.91 L/kg
same,Half-life T1/2,[2]; [3],1.52 h
same,Peak concentration Cmax,[2]; [3],766.60 ng/mL
